The source of these data is ChEMBL document CHEMBL3603772, “Chemical Biology of Leucine-Rich Repeat Kinase 2 (LRRK2) Inhibitors” (J Med Chem, 2015).

pEC50, pIC50: −log10 of the molar value.

In series [1] the target is Leucine-rich repeat serine/threonine-protein kinase 2 (Homo sapiens, UniProt Q5S007). The series can be described thus: Inhibition of LRRK2 (unknown origin).
Series [2] addresses Leucine-rich repeat serine/threonine-protein kinase 2 (Homo sapiens, UniProt Q5S007, G2019S). Kind of series: Inhibition of LRRK2 G2019S mutant in human HEK293 cells assessed as phosphorylation at Ser935. Format: cell-based.
A short description of series [3]: Clearance in mouse at 1 mg/kg, iv. Format: ADME, organism-based. As to conditions: in vivo.
For another series, the system named is Brain. The series can be described thus: Druguptake in mouse brain at 1 mg/kg, iv. The class given is ADME, organism-based. The settings on record: in vivo.
The nature of series [4]: Inhibition of LRRK2 G2019S mutant-induced neuronal toxicity in rat cortical neurons.

Chain of Leucine-rich repeat serine/threonine-protein kinase 2 (Homo sapiens, UniProt Q5S007) (Q5S007 whole entry): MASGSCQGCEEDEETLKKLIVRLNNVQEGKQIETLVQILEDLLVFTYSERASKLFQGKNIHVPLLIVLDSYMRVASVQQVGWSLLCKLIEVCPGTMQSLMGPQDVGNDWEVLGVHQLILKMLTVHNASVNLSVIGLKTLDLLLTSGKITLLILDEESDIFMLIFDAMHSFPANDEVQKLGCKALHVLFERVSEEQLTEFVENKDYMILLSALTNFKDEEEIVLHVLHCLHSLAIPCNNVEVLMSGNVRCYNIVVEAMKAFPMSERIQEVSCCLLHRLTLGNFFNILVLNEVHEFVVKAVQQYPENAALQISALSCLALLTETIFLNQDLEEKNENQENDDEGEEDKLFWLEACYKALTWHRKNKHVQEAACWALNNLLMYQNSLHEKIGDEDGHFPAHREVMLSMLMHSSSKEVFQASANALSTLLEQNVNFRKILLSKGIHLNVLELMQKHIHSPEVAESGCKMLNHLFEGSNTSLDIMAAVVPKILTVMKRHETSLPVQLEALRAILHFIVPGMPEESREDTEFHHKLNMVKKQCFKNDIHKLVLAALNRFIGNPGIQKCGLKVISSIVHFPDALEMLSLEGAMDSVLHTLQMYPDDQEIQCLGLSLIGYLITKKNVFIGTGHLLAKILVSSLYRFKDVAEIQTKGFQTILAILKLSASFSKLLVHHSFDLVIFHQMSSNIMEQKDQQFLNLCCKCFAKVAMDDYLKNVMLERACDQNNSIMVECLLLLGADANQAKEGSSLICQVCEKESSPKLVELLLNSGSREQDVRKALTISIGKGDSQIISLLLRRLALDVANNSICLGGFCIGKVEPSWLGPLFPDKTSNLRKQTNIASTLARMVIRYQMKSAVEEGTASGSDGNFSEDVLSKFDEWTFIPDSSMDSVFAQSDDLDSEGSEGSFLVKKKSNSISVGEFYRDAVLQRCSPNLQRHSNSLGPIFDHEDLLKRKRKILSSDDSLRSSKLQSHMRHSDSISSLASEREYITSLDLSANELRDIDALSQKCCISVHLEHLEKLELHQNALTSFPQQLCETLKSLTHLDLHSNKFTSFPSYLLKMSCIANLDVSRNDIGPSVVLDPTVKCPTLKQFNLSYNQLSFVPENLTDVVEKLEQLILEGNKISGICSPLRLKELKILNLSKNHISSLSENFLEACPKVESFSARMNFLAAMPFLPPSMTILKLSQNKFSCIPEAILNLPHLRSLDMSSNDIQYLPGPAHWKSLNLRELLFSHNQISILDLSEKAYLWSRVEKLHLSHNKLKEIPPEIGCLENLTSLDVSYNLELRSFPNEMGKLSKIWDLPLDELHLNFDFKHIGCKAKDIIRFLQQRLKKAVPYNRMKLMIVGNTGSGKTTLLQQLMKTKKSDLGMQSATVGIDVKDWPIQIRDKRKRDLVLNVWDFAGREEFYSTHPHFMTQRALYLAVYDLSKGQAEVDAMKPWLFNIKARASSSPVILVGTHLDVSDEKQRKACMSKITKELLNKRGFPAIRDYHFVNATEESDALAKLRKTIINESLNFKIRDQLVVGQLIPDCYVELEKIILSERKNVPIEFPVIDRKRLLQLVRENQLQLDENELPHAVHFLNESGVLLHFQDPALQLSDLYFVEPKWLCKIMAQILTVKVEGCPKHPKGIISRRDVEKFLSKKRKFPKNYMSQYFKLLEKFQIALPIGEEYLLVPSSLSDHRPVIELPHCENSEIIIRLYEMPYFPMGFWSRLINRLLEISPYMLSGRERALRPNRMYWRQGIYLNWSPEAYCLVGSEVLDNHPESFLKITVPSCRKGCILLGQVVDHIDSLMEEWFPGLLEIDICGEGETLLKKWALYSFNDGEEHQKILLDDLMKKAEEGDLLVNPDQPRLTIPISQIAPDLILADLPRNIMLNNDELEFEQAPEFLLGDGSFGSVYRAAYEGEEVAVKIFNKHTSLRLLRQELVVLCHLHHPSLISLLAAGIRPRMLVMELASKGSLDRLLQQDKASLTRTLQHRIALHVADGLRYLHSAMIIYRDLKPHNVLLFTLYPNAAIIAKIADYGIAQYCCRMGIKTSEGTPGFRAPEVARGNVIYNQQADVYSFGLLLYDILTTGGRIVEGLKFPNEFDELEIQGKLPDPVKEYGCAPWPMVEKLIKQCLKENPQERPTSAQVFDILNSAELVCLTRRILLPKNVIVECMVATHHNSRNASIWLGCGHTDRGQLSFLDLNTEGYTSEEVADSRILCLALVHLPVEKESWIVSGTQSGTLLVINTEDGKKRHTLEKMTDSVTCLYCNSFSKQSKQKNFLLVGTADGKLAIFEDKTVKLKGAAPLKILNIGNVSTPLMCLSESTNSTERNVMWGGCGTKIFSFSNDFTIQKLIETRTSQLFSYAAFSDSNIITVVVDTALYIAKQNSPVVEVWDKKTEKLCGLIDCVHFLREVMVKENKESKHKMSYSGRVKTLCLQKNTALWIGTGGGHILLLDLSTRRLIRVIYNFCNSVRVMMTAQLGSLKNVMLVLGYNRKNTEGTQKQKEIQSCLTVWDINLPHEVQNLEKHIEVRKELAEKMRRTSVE
Chain of Leucine-rich repeat serine/threonine-protein kinase 2 (Homo sapiens, UniProt Q5S007, G2019S) (Q5S007 whole entry G2019S): as the sequence (Q5S007 whole entry) above, with G2019S counted along it

The term pIC50 denotes −log10 of the IC50, conventionally taken in molar units. As to `COc1cc(C(=O)N2CCC(N3CCN(C)CC3)CC2)ccc1Nc1ncc2c(n1)N(C)c1ccccc1C(=O)N2C`, in series [1], the pIC50 was 8.22.
For `CN1CCN(c2ccc(OCc3ccccc3)c(C(=O)Nc3cccnc3)c2)CC1`, the figures for the pIC50 in series [1] and in series [2] were 8.22 and 7.03, respectively.
As a reminder, the clearance is the volume of plasma or blood freed of the substance per unit of time. What is called pEC50 is the EC50 on a negative log10 scale, so that one unit is a factor of ten. `COc1cc(N2CCOCC2)ccc1Nc1ncc(F)c(Nc2ccccc2NS(C)(=O)=O)n1` gave a negative-log IC50 (pIC50) in series [1] of 8.15. Further, the clearance in series [3] was found to be 2.3 mL/min/kg. Moreover, the Drug uptake in the series with Brain is listed as 4%. In series [4], this molecule gave a pEC50 of 7.00.
